Test results taken from publication PMC4719581, “Tankyrase inhibition impairs directional migration and invasion of lung cancer cells by affecting microtubule dynamics and polarity signals” (BMC Biology, 2016).

Target: T1, TNKS2 (tankyrase 2) (Homo sapiens, UniProt Q9H2K2)
T1 construct: recombinant His-tagged human TNKS2 poly(adenosine diphosphate)-ribose polymerase (PARP) domain, baculovirus-expressed
T1 sequence (Q9H2K2 946-1162 limits assumed): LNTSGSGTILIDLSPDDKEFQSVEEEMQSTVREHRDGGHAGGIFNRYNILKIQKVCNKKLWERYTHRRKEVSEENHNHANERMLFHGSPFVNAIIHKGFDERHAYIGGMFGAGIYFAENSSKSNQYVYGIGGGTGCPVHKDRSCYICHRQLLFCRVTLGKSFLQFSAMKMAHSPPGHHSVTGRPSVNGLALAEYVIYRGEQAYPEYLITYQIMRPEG
Experiment: auto-PARsylation assay with purified PARP domain on Ni2+-coated Flashplate, radioactive scintillation readout
Type: biochemical

Work on `CCc1cc2ccc(C(C)(C#N)Cc3cccc(C#N)c3)cc2[nH]c1=O` (single isomer, unassigned) [JNJ-BJ, (R or S)-3-[2-cyano-2-(3-ethyl-2-oxo-1H-quinolin-7-yl)propyl]benzonitrile] yielded an IC50 of 130 nM.
